Data: patent publication US20250204247A1, “DISPLAY APPARATUS AND ELECTRONIC DEVICE” (SEMICONDUCTOR ENERGY LABORATORY CO., LTD., priority 2022, published 2025)

Assay: Solubility test in water (visual inspection for an insoluble residue)
Type: physicochemical
Details: for solubility in water relative to the solubility of hpp2Py in water: fraction of the hpp2Py solubility in water
Method: In a sample bottle (capacity: 20 mL) was put 1.16 mg of 1,1′-(9,9′-spirobi[9H-fluorene]-2,7-diyl)bis(1,3,4,6,7,8-hexahydro-2H-pyrimido[1,2-a]pyrimidine) (abbreviation: 2,7hpp2SF), and 0.5 mL of water was added thereto. This mixture was irradiated with ultrasonic waves for one minute. A precipitated white powder was found by visual inspection for an insoluble residue. After further addition of 0.5 mL of water and one-minute ultrasonic wave irradiation, a precipitated white powder was found by visual inspection. This procedure was repeatedly executed until the dissolution was confirmed by visual inspection.
The precipitated white powder was found until the total amount of water reached 3.0 mL. After further addition of 0.5 mL of water and ultrasonic wave irradiation, no precipitated white powder was found.
In a sample bottle (capacity: 100 mL) was put 1.08 mg of 1-(9,9′-spirobi[9H-fluorene]-2-yl)-1,3,4,6,7,8-hexahydro-2H-pyrimido[1,2-a]pyrimidine) (abbreviation: 2hppSF), and 50 mL of water was added thereto. A precipitated white powder was found by visual inspection for an insoluble residue. When 10 mL of water was further added, the precipitated white powder was not observed by visual inspection.
In a sample bottle (capacity: 5 mL) was put 50.2 mg of 1,1′-pyridine-2,6-diyl-bis(1,3,4,6,7,8-hexahydro-2H-pyrimido[1,2-a]pyrimidine) (abbreviation: hpp2Py), and 1.0 mL of water was added thereto. The dissolution was found by visual inspection for an insoluble residue.

Row | SMILES | solubility in water relative to the solubility of hpp2Py in water | weight which can be dissolved in 1.0 mL of water (per 1.0 mL of water, dissolution confirmed by visual inspection)
1 | c1ccc2c(c1)-c1ccccc1C21c2cc(N3CCCN4CCCN=C43)ccc2-c2ccc(N3CCCN4CCCN=C43)cc21 [2,7hpp2SF, 1,1′-(9,9′-spirobi[9H-fluoren]-2,7-diyl)bis(1,3,4,6,7,8-hexahydro-2H-pyrimido[1,2-a]pyrimidine)] | less than or equal to 1/10 | 
2 | c1ccc2c(c1)-c1ccccc1C21c2ccccc2-c2ccc(N3CCCN4CCCN=C43)cc21 [2hppSF, 1-(9,9′-spirobi[9H-fluoren]-2-yl)-1,3,4,6,7,8-hexahydro-2H-pyrimido[1,2-a]pyrimidine] | less than or equal to 1/10 | 
3 | c1cc(N2CCCN3CCCN=C32)nc(N2CCCN3CCCN=C32)c1 [hpp2Py, 1,1′-pyridine-2,6-diyl-bis(1,3,4,6,7,8-hexahydro-2H-pyrimido[1,2-a]pyrimidine), reference compound] |  | greater than or equal to 50.2 mg
